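These data come from cells grown in 96-well plates and exposed to compound for 48 hours at five concentrations. TGI denotes the concentration required for complete inhibition of growth.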
What was measured:
Assay in all cases: NCI-60 cell line screen, 48 h
[1] = system: BT-549 breast
[2] = system: DU-145 prostate
[3] = system: HCC-2998 colon
[4] = system: MDA-N
[5] = system: OVCAR-3 ovarian
[6] = system: OVCAR-8 ovarian
[7] = system: SN12C renal
[8] = system: SNB-75 CNS
[9] = system: SR leukemia
[10] = system: SW-620 colon

SMILES | TGI [1] [µM] | TGI [2] [µM] | TGI [3] [µM] | TGI [4] [µM] | TGI [5] [µM] | TGI [6] [µM] | TGI [7] [µM] | TGI [8] [µM] | TGI [9] [µM] | TGI [10] [µM]
NC(=O)CSc1c2cc(O)ccc2nc2ccc(O)cc12 | > 10 | > 10 | > 10 | > 10 | > 10 | > 10 | > 10 | > 10 | > 10 | > 10
CCCCCCCCC/C=C1/CC(CO)(COC(=O)CC(C(C)C)C(C)C)OC1=O (stereo not given) | 27.7 | 25.3 | 9.86 | 18.3 | 27.6 | 29.8 | 18 | 18.9 | > 54.2 | 19
N#Cc1c2ccc([N+](=O)[O-])cc2c(=O)n2c1[nH]c1ccc(C(F)(F)F)cc12 | > 100 | > 100 | > 100 | > 100 | 83.4 | > 100 | > 100 | > 100 | > 25.7 | > 100
CC(C)=NOC(=O)CNC(=O)C(Cc1ccccc1)NC(=O)C(C)NC(=O)OC(C)(C)C (stereo not given) | > 100 | > 100 | > 100 | > 100 | > 100 | > 100 | > 100 | > 100 | > 100 | > 100
Oc1[nH]c2ccccc2c1C1=Nc2ccccc2/C1=N\OCCOC1OCC(O)C(O)C1O (stereo not given) | > 100 | > 100 | > 100 | > 100 | > 100 | > 100 | > 100 | > 100 | > 100 | > 100
CC1(C)CO[P@@](=S)(c2ccccn2)O[C@@H]1c1ccccc1 | > 100 | > 100 | > 100 | > 100 | > 100 | > 100 | > 100 | > 100 | > 100 | > 100
CC(=O)O[C@H]1CC[C@@]2(C)C(=CC[C@@H]3[C@@H]2CC[C@]2(C)c4c(n[nH]c4C)C[C@@H]32)C1 | 32.1 | 27.2 | 34.1 | 46.6 | 26.2 | 92.9 | 45.5 | 25.3 | 58.7 | > 100
C[C@@H](C[C@H]1OC(C)(C)O[C@@H]1C(C)(C)O)[C@H]1CC=C2[C@]3(C)[C@H](O)C[C@H]4C(C)(C)[C@H](O)CC[C@]4(C)[C@H]3CC[C@]21C | 22.4 | 28.7 | 15.8 | 16.8 | 15.4 | 27.1 | 6.51 | 19.8 | 11.3 | 19.4
Nc1[nH]c(=O)nc2snnc12 | > 100 | > 100 | > 100 | > 100 | > 100 | > 100 | > 100 | > 100 | > 100 | > 100
COc1ccc(-c2c(-c3ccccc3)c(C)c3ccccn23)cc1 | > 100 | > 100 | > 100 | > 100 | > 100 | > 100 | > 100 | > 100 | > 100 | > 100
CC12CC(=O)Nc3ccccc3N1C(c1ccccc1)=NO2 (stereo not given) | > 100 | > 100 | > 100 | > 100 | > 100 | > 100 | > 100 | > 100 | > 100 | > 100
O=C1NC(Nc2ccccc2)=N/C1=C\c1c(Cl)cccc1Cl | > 100 | 76.3 | 58.5 | 60.9 | > 100 | 65.1 | 46.6 | 42.3 | > 100 | > 100
O=[N+]([O-])c1ccc(C2ON=C(c3ccccc3)N2C23CC4CC(CC(C4)C2)C3)cc1 (stereo not given) | > 10 | > 10 | > 10 | > 10 | > 10 | > 10 | > 10 | > 10 | > 10 | > 10
COc1c2c(nc3ccccc13)-c1cc(C(CC(=O)OC(C)(C)C)C(=O)OC(C)C)c(CO)c(=O)n1C2 (stereo not given) | > 100 | > 100 | > 100 | > 100 | > 100 | > 100 | > 100 | > 100 | > 100 | > 100
O=c1nc2ccc([N+](=O)[O-])cc2[n+]([O-])[nH]1 | > 100 | > 100 | > 100 | > 100 | > 100 | > 100 | > 100 | > 100 | > 100 | > 100
C/C(=N\NC(=O)c1ccc(Cl)cc1)c1nc2ncccc2[nH]1 | 85.5 | > 100 | > 100 | > 100 | 81.5 | 58.6 | > 100 | 17.9 | > 100 | > 100
O=C(Cn1cc(Br)c(=O)[nH]c1=O)c1ccc(-c2ccccc2)cc1 | > 23.8 | > 30.7 | > 28.7 | > 100 | > 100 | 76.5 | > 100 | 6.51 | > 100 | > 100

From PubChem BioAssay (NCI)
